Measurements taken from the supplement of paper PMC13380429.

Key:
Details in all cases: 72 h
[1] = tested on: Caco-2; test: relative viability EC50 (midpoint between 100% and the lowest measured viability); higher = less toxic
[2] = tested on: Calu-3; test: as above
[3] = tested on: Vero E6; test: as above
[4] = tested on: HepG2; test: as above
[5] = tested on: U2OS; test: as above
[6] = tested on: Caco-2; test: drug sensitivity score (DSS) for viability; higher = more toxic; extreme values may be limits of the assay
[7] = tested on: Calu-3; test: as above
[8] = tested on: Vero E6; test: as above
[9] = tested on: HepG2; test: as above
[10] = tested on: U2OS; test: as above
[11] = tested on: Caco-2; test: cell viability relative to DMSO; higher = less toxic
[12] = tested on: Calu-3; test: as above
[13] = tested on: Vero E6; test: as above
[14] = tested on: HepG2; test: as above
[15] = tested on: U2OS; test: as above

SMILES | relative viability EC50 [1] | relative viability EC50 [2] | relative viability EC50 [3] | relative viability EC50 [4] | relative viability EC50 [5] | drug sensitivity score [6] | drug sensitivity score [7] | drug sensitivity score [8] | drug sensitivity score [9] | drug sensitivity score [10] | cell viability ([11]; 1 nM) | cell viability ([11]; 10 nM) | cell viability ([11]; 100 nM) | cell viability ([11]; 1000 nM) | cell viability ([11]; 10000 nM) | cell viability ([12]; 1 nM) | cell viability ([12]; 10 nM) | cell viability ([12]; 100 nM) | cell viability ([12]; 1000 nM) | cell viability ([12]; 10000 nM) | cell viability ([13]; 1 nM) | cell viability ([13]; 10 nM) | cell viability ([13]; 100 nM) | cell viability ([13]; 1000 nM) | cell viability ([13]; 10000 nM) | cell viability ([14]; 1 nM) | cell viability ([14]; 10 nM) | cell viability ([14]; 100 nM) | cell viability ([14]; 1000 nM) | cell viability ([14]; 10000 nM) | cell viability ([15]; 1 nM) | cell viability ([15]; 10 nM) | cell viability ([15]; 100 nM) | cell viability ([15]; 1000 nM) | cell viability ([15]; 10000 nM)
O=C(O)C[C@H]1CC[C@H](c2ccc(NC(=O)c3nnc(Nc4ccc(F)c(F)c4)o3)cc2)CC1 [AZD3988] | > 10 µM | > 10 µM | > 10 µM | > 10 µM | > 10 µM | 0 | 0 | 0 | 0 | 0 | 99% | 104% | 96.6% | 100% | 87.9% | 104% | 104% | 97.6% | 108% | 100% | 97.9% | 97.4% | 95.2% | 95.3% | 101% | 110% | 105% | 103% | 93% | 102% | 99.7% | 98.8% | 97.2% | 103% | 94.7%
O=C(O)C1CSCN1 (stereo not given) [timonacic] | > 10 µM | > 10 µM | > 10 µM | > 10 µM | > 10 µM | 0 | 0 | 0 | 0 | 0 | 101% | 102% | 96.4% | 88.3% | 102% | 115% | 94.9% | 94.6% | 109% | 104% | 97% | 99.6% | 97.6% | 98.9% | 94.1% | 94.4% | 98.7% | 88.1% | 98.4% | 97.9% | 103% | 98.2% | 99.5% | 98.8% | 102%
NC(=O)C(c1ccccc1)(c1ccc(F)cc1)c1ccc(F)cc1 [senicapoc] | > 10 µM | > 10 µM | > 10 µM | > 10 µM | > 10 µM | 0 | 0 | 0 | 0 | 0 | 101% | 105% | 102% | 92.4% | 99.4% | 99% | 96.7% | 99% | 102% | 92.3% | 96.9% | 99.1% | 94.5% | 97.3% | 92.9% | 93.4% | 98.8% | 96.4% | 95.5% | 97.7% | 102% | 96.9% | 104% | 98.8% | 98.8%
CO[C@@]1(NC(=O)C(C(=O)O)c2ccc(O)cc2)C(=O)N2C(C(=O)O)=C(CSc3nnnn3C)CO[C@@H]21 (stereo not given in full) [moxalactam] | > 10 µM | > 10 µM | > 10 µM | > 10 µM | > 10 µM | 0 | 0 | 0 | 0 | 0 | 92.6% | 99.7% | 96.7% | 95.9% | 105% | 93.2% | 100% | 92.1% | 105% | 98% | 98.1% | 97.5% | 98.1% | 92.7% | 100% | 102% | 95.2% | 117% | 84.9% | 117% | 94.8% | 98.2% | 96.1% | 103% | 104%
CC[C@@]1(O)C(=O)OCc2c1cc1n(c2=O)Cc2cc3c(CN(C)C)c(O)ccc3nc2-1 [topotecan] | 0.748 µM | 0.38 µM | 0.756 µM | 0.0757 µM | 1.16 µM | 10.4 | 12.6 | 7.5 | 23.6 | 10.2 | 97.7% | 92.8% | 83.3% | 58.6% | 16.2% | 111% | 102% | 77.3% | 47.2% | 20.1% | 102% | 97.3% | 95.1% | 65.1% | 39.8% | 110% | 70.3% | 48.6% | 18.8% | 1.4% | 101% | 107% | 97.9% | 60.6% | 5.9%
COC(=O)Nc1ccc(-c2nc(N3CCOCC3)c3cnn(C4CCN(Cc5cccnc5)CC4)c3n2)cc1 [WYE-687] | 0.496 µM | 0.271 µM | 0.925 µM | 0.818 µM | 1.36 µM | 11.5 | 14.2 | 6.9 | 10.1 | 8.2 | 93.6% | 93.9% | 88% | 47.8% | 21.6% | 100% | 95.5% | 79.2% | 37.2% | 20.4% | 94.2% | 95.9% | 89.3% | 71.3% | 37.6% | 97.5% | 111% | 92.8% | 54% | 17.6% | 104% | 97% | 100% | 74.2% | 19%
CCCC(=O)Nc1ccc(OCC(O)CNC(C)C)c(C(C)=O)c1 (stereo not given) [acebutolol] | > 10 µM | > 10 µM | > 10 µM | > 10 µM | > 10 µM | 0 | 0 | 0 | 0 | 0 | 102% | 94.8% | 93% | 104% | 96.1% | 95.3% | 104% | 104% | 117% | 88.5% | 88.2% | 96.9% | 93.8% | 81.9% | 95.6% | 106% | 88.6% | 104% | 88.7% | 104% | 90.4% | 96.3% | 95.2% | 98% | 101%
Nc1nc(F)nc2c1ncn2[C@@H]1O[C@H](COP(=O)(O)O)[C@@H](O)[C@@H]1O [fludarabine-phosphate] | > 10 µM | > 10 µM | > 10 µM | > 10 µM | > 10 µM | 0 | 0 | 0 | 0 | 0 | 94.5% | 106% | 98.6% | 96.9% | 101% | 97.1% | 86.8% | 98.3% | 92.9% | 89.2% | 104% | 105% | 101% | 101% | 97.6% | 90.9% | 85.3% | 94.7% | 98.5% | 77.7% | 103% | 105% | 97.4% | 99.7% | 104%
COc1ccc2c(c1)[C@]13CCCC[C@@H]1[C@H](C2)N(C)CC3 [dextromethorphan] | > 10 µM | > 10 µM | > 10 µM | > 10 µM | > 10 µM | 0 | 0 | 0 | 0 | 0 | 98.1% | 98.9% | 104% | 97.7% | 97.7% | 95.6% | 106% | 89.6% | 99.3% | 102% | 92.1% | 100% | 97.3% | 95.9% | 104% | 111% | 108% | 95.8% | 103% | 109% | 97.1% | 98.3% | 99.7% | 95.3% | 97.1%
C[C@@H]1c2ccccc2CN1CC1=NCCN1 (racemic) | > 10 µM | > 10 µM | > 10 µM | > 10 µM | > 10 µM | 0 | 0 | 0 | 0 | 0 | 100% | 92.4% | 89.9% | 100% | 121% | 107% | 96.5% | 102% | 108% | 114% | 95.9% | 97.8% | 95.4% | 92.9% | 102% | 100% | 86.9% | 109% | 116% | 116% | 97.4% | 94.8% | 101% | 96.3% | 104%
Cc1cc(-c2ccccc2)nnc1NCCN1CCOCC1 [minaprine] | > 10 µM | > 10 µM | > 10 µM | > 10 µM | > 10 µM | 0 | 0.2 | 0 | 0 | 0 | 92% | 96% | 98.4% | 96.1% | 89.3% | 102% | 96.8% | 99.1% | 89.4% | 91.7% | 101% | 98.1% | 98.8% | 100% | 94.5% | 96.3% | 99.6% | 96.8% | 94.2% | 93.6% | 104% | 97.8% | 99.6% | 98.9% | 103%
CC(NCCc1ccc(O)cc1)C(O)c1ccc(O)cc1 (stereo not given) [ritodrine] | > 10 µM | > 10 µM | > 10 µM | > 10 µM | > 10 µM | 0 | 0 | 0 | 0 | 0 | 91.4% | 97.7% | 95.5% | 99.7% | 105% | 102% | 105% | 93.7% | 98.3% | 101% | 86.5% | 93.6% | 102% | 98.9% | 109% | 94.5% | 102% | 91.4% | 95.8% | 103% | 96.9% | 102% | 97% | 101% | 105%
N[C@@H](CC(=O)N1CCn2c(nnc2C(F)(F)F)C1)Cc1cc(F)c(F)cc1F [sitagliptin] | > 10 µM | > 10 µM | > 10 µM | > 10 µM | > 10 µM | 0.2 | 0 | 0 | 0 | 0 | 108% | 99.5% | 97.1% | 102% | 84.1% | 107% | 100% | 99.5% | 106% | 97.7% | 97.7% | 106% | 90.7% | 107% | 102% | 89.2% | 98.9% | 91.1% | 97.5% | 88.6% | 97.5% | 94.6% | 97.4% | 94.8% | 97.7%
CC/C(=C(/CC)c1ccc(OP(=O)(O)O)cc1)c1ccc(OP(=O)(O)O)cc1 [fosfestrol] | > 10 µM | > 10 µM | > 10 µM | > 10 µM | > 10 µM | 0 | 0 | 0 | 0 | 0 | 84.6% | 93.5% | 97.2% | 94.5% | 104% | 87% | 84.9% | 92.5% | 108% | 117% | 94.2% | 92.8% | 92.4% | 94.8% | 108% | 102% | 97.6% | 105% | 97.1% | 107% | 93.4% | 105% | 102% | 102% | 105%
CCCC(CCC)C(=O)O[C@H]1C[C@H]2CC[C@@H](C1)[N+]2(C)C [anisotropine] | > 10 µM | > 10 µM | > 10 µM | > 10 µM | > 10 µM | 0 | 0 | 0 | 0 | 0 | 94.8% | 95.2% | 86.6% | 97.8% | 99.1% | 94.7% | 107% | 93.9% | 97.6% | 92% | 100% | 96.1% | 97.8% | 96.6% | 100% | 102% | 96.9% | 99% | 90.2% | 102% | 101% | 99% | 90.3% | 99.9% | 90.7%
